Data reported in patent US20250353891A1 (MEDIMMUNE LIMITED, priority 2022, published 2025).
Where two headings read alike, the source gives them in different places. Starred links: 1 amine or outer side, 2 acyl side, 3 side chain; linkers in the order of their positions; H or OH if unused. Non-standard residues stand in square brackets, D forms with d. Residues, ends and D or L forms follow the SMILES beside them. Groups on a side chain read outwards from the residue. *: point of attachment. C18 diacid = O=C(O)CCCCCCCCCCCCCCCCC(=O)*; γGlu = O=C(O)[C@H](CCC(=O)[*:2])N[*:1]; αMeF = C[C@](N)(Cc1ccccc1)C(=O)O; AEEA = NCCOCCOCC(=O)O; Aib = CC(C)(N)C(=O)O

How the values were obtained:
[1] = target: human glucagon receptor (hGCGR) (Homo sapiens, UniProt P47871); experiment: cAMP production (HTRF) in CHO cells expressing hGCGR; format: cell-based; parameters: expressed in transfected cells; conditions: cAMP in CHO hGCGR cells, geometric mean, read-out: hGluc-R EC50
Procedure, shortened: (§1)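 Cells were resuspended in assay buffer at batch-optimized density, typically 1×10^5 cells/mL for hGLP-1R and 2×10^5 cells/mL for hGCGR. After 30 min incubation at room temperature with compound, cAMP was measured by two-step HTRF. EC50 values came from 4-parameter logistic fits of % Delta F.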

[2] = target: human GLP-1 receptor (hGLP-1R) (Homo sapiens, UniProt P43220); experiment: cAMP production (HTRF) in CHO cells expressing hGLP-1R; format: cell-based; parameters: expressed in transfected cells; conditions: for EC50: cAMP in CHO hGLP-1R cells, geometric mean, read-out: hGLP-1R EC50; for % Relative Potency Ratio: % GLP-1R activity relative to GLP-1 / % GlucR activity relative to glucagon
Procedure, shortened: as §1

[3] = Table 6, peptides modified at position 17
[4] = Table 7, peptides modified at position 20

Sequence of human GLP-1 receptor (hGLP-1R) (P43220 24-463): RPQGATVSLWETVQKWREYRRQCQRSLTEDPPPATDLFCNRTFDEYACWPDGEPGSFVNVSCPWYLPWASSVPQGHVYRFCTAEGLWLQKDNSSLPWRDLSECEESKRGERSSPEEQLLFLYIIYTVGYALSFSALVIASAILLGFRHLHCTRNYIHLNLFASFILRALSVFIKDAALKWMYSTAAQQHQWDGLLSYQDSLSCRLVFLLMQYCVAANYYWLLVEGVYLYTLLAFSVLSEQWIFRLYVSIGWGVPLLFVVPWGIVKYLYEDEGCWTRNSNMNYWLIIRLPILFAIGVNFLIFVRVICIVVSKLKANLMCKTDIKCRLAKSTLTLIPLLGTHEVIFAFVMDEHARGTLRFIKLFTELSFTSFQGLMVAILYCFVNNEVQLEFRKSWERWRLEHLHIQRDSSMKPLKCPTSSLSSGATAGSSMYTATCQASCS
Sequence of human glucagon receptor (hGCGR) (P47871 26-477): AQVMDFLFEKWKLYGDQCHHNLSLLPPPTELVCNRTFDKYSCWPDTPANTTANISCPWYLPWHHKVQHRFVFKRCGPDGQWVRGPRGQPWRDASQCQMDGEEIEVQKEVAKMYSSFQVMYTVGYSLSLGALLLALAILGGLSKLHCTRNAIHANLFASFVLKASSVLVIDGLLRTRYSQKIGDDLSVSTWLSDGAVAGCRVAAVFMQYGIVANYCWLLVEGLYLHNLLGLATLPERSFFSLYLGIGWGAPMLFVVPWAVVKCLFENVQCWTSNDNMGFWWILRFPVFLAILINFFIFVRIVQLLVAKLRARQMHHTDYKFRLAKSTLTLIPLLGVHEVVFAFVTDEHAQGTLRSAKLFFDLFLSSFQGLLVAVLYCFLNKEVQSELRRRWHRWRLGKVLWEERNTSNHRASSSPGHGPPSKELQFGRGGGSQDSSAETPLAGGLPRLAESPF

SMILES | EC50 [1, 3] [nM] | EC50 [2, 3] [nM] | % Relative Potency Ratio ([2]; Table 6) | EC50 [1, 4] [nM] | EC50 [2, 4] [nM] | % Relative Potency Ratio ([2]; Table 7)
CC(C)C[C@H](NC(=O)[C@H](Cc1c[nH]c2ccccc12)NC(=O)[C@H](CCCNC(=N)N)NC(=O)[C@@H](NC(=O)[C@H](Cc1ccccc1)NC(=O)[C@H](CC(=O)O)NC(=O)[C@H](CCCNC(=N)N)NC(=O)[C@H](C)NC(=O)[C@H](CCCNC(=N)N)NC(=O)[C@H](CCCCNC(=O)COCCOCCNC(=O)COCCOCCNC(=O)CC[C@H](NC(=O)CCCCCCCCCCCCCCCCC(=O)O)C(=O)O)NC(=O)[C@@H](NC(=O)[C@H](CC(=O)O)NC(=O)[C@H](CC(C)C)NC(=O)[C@](C)(Cc1ccccc1)NC(=O)[C@H](CCCCN)NC(=O)[C@H](CO)NC(=O)[C@@H](NC(=O)[C@H](CC(=O)O)NC(=O)[C@H](CO)NC(=O)[C@@H](NC(=O)[C@H](Cc1ccccc1)NC(=O)[C@@H](NC(=O)CNC(=O)[C@H](CCC(N)=O)NC(=O)C(C)(C)NC(=O)[C@@H](N)Cc1c[nH]cn1)[C@@H](C)O)[C@@H](C)O)C(C)C)[C@@H](C)O)C(C)C)C(=O)N[C@@H](CC(C)C)C(=O)NC(C)(C)C(=O)N[C@@H](CCC(=O)O)C(=O)O [Peptide 197] (H-H[Aib]QGTFTSDVSK[αMeF]LDTK([AEEA-AEEA-γGlu-C18 diacid])RARDFVRWLL[Aib]E-OH; N-terminus assumed) | 0.112 | 0.064 | 3.5 |  |  | 
CC[C@H](C)[C@H](NC(=O)[C@H](Cc1ccccc1)NC(=O)[C@H](CC(=O)O)NC(=O)[C@H](CCCNC(=N)N)NC(=O)[C@H](C)NC(=O)[C@H](CCCNC(=N)N)NC(=O)[C@H](CCCCNC(=O)COCCOCCNC(=O)COCCOCCNC(=O)CC[C@H](NC(=O)CCCCCCCCCCCCCCCCC(=O)O)C(=O)O)NC(=O)[C@@H](NC(=O)[C@H](CC(=O)O)NC(=O)[C@H](CC(C)C)NC(=O)[C@](C)(Cc1ccccc1)NC(=O)[C@H](CCCCN)NC(=O)[C@H](CO)NC(=O)[C@@H](NC(=O)[C@H](CC(=O)O)NC(=O)[C@H](CO)NC(=O)[C@@H](NC(=O)[C@H](Cc1ccccc1)NC(=O)[C@@H](NC(=O)CNC(=O)[C@H](CCC(N)=O)NC(=O)C(C)(C)NC(=O)[C@@H](N)Cc1c[nH]cn1)[C@@H](C)O)[C@@H](C)O)C(C)C)[C@@H](C)O)C(=O)N[C@@H](C)C(=O)N[C@@H](Cc1c[nH]c2ccccc12)C(=O)N[C@@H](CC(C)C)C(=O)N[C@@H](CC(C)C)C(=O)NC(C)(C)C(=O)N[C@@H](CCC(=O)O)C(=O)O [Peptide 198] (H-H[Aib]QGTFTSDVSK[αMeF]LDTK([AEEA-AEEA-γGlu-C18 diacid])RARDFIAWLL[Aib]E-OH; N-terminus assumed) | 0.302 | 0.212 | 2.8 |  |  | 
CC(C)C[C@H](NC(=O)[C@H](Cc1c[nH]c2ccccc12)NC(=O)[C@H](CCC(N)=O)NC(=O)[C@@H](NC(=O)[C@H](Cc1ccccc1)NC(=O)[C@H](CC(=O)O)NC(=O)[C@H](CCCNC(=N)N)NC(=O)[C@H](C)NC(=O)[C@H](CCCNC(=N)N)NC(=O)[C@H](CCCCNC(=O)COCCOCCNC(=O)COCCOCCNC(=O)CC[C@H](NC(=O)CCCCCCCCCCCCCCCCC(=O)O)C(=O)O)NC(=O)[C@@H](NC(=O)[C@H](CC(=O)O)NC(=O)[C@H](CC(C)C)NC(=O)[C@](C)(Cc1ccccc1)NC(=O)[C@H](CCCCN)NC(=O)[C@H](CO)NC(=O)[C@@H](NC(=O)[C@H](CC(=O)O)NC(=O)[C@H](CO)NC(=O)[C@@H](NC(=O)[C@H](Cc1ccccc1)NC(=O)[C@@H](NC(=O)CNC(=O)[C@H](CCC(N)=O)NC(=O)C(C)(C)NC(=O)[C@@H](N)Cc1c[nH]cn1)[C@@H](C)O)[C@@H](C)O)C(C)C)[C@@H](C)O)C(C)C)C(=O)N[C@@H](CCC(=O)O)C(=O)N[C@@H](C)C(=O)NC(C)(C)C(=O)NCC(=O)O [Peptide 202] (H-H[Aib]QGTFTSDVSK[αMeF]LDTK([AEEA-AEEA-γGlu-C18 diacid])RARDFVQWLEA[Aib]G-OH; N-terminus assumed) | 0.242 | 0.0178 | 26.9 |  |  | 
CC[C@H](C)[C@H](NC(=O)[C@H](Cc1c[nH]c2ccccc12)NC(=O)[C@H](CCC(N)=O)NC(=O)[C@@H](NC(=O)[C@H](Cc1ccccc1)NC(=O)[C@H](CC(=O)O)NC(=O)[C@H](CCCCNC(=O)COCCOCCNC(=O)COCCOCCNC(=O)CC[C@H](NC(=O)CCCCCCCCCCCCCCCCC(=O)O)C(=O)O)NC(=O)[C@H](C)NC(=O)[C@H](C)NC(=O)[C@H](CCCNC(=N)N)NC(=O)[C@H](CO)NC(=O)[C@H](CC(=O)O)NC(=O)[C@H](CC(C)C)NC(=O)[C@](C)(Cc1ccccc1)NC(=O)[C@H](CCCCN)NC(=O)[C@H](CO)NC(=O)[C@@H](NC(=O)[C@H](CC(=O)O)NC(=O)[C@H](CO)NC(=O)[C@@H](NC(=O)[C@](C)(Cc1ccccc1)NC(=O)[C@H](CO)NC(=O)CNC(=O)[C@H](Cc1c[nH]cn1)NC(=O)C(C)(C)NC(=O)[C@@H](N)Cc1c[nH]cn1)[C@@H](C)O)C(C)C)C(C)C)C(=O)N[C@@H](C)C(=O)N[C@@H](CC(N)=O)C(=O)N[C@H](C(N)=O)[C@@H](C)O [Peptide 205] (H-H[Aib]HGS[αMeF]TSDVSK[αMeF]LDSRAAK([AEEA-AEEA-γGlu-C18 diacid])DFVQWIANT-NH2) |  |  |  | 0.00814 | 0.0299 | 0.5

Further compounds by falling EC50 [1, 3], results first:

EC50 [1, 3] [nM] | EC50 [2, 3] [nM] | % Relative Potency Ratio ([2]; Table 6) | EC50 [1, 4] [nM] | EC50 [2, 4] [nM] | % Relative Potency Ratio ([2]; Table 7) | SMILES
0.183 | 0.0227 | 15.9 |  |  |  | CC(C)C[C@H](NC(=O)[C@H](Cc1c[nH]c2ccccc12)NC(=O)[C@H](C)NC(=O)[C@@H](NC(=O)[C@H](Cc1ccccc1)NC(=O)[C@H](CC(=O)O)NC(=O)[C@H](CCCNC(=N)N)NC(=O)[C@H](C)NC(=O)[C@H](CCCNC(=N)N)NC(=O)[C@H](CCCCNC(=O)COCCOCCNC(=O)COCCOCCNC(=O)CC[C@H](NC(=O)CCCCCCCCCCCCCCCCC(=O)O)C(=O)O)NC(=O)[C@@H](NC(=O)[C@H](CC(=O)O)NC(=O)[C@H](CC(C)C)NC(=O)[C@](C)(Cc1ccccc1)NC(=O)[C@H](CCCCN)NC(=O)[C@H](CO)NC(=O)[C@@H](NC(=O)[C@H](CC(=O)O)NC(=O)[C@H](CO)NC(=O)[C@@H](NC(=O)[C@H](Cc1ccccc1)NC(=O)[C@@H](NC(=O)CNC(=O)[C@H](CCC(N)=O)NC(=O)C(C)(C)NC(=O)[C@@H](N)Cc1c[nH]cn1)[C@@H](C)O)[C@@H](C)O)C(C)C)[C@@H](C)O)C(C)C)C(=O)N[C@@H](CCC(=O)O)C(=O)N[C@@H](C)C(=O)NC(C)(C)C(=O)NCC(=O)O [Peptide 201] (H-H[Aib]QGTFTSDVSK[αMeF]LDTK([AEEA-AEEA-γGlu-C18 diacid])RARDFVAWLEA[Aib]G-OH)
0.18 | 0.0316 | 11.3 |  |  |  | CC[C@H](C)[C@H](NC(=O)[C@H](Cc1ccccc1)NC(=O)[C@H](CC(=O)O)NC(=O)[C@H](CCCNC(=N)N)NC(=O)[C@H](C)NC(=O)[C@H](CCCNC(=N)N)NC(=O)[C@H](CCCCNC(=O)COCCOCCNC(=O)COCCOCCNC(=O)CC[C@H](NC(=O)CCCCCCCCCCCCCCCCC(=O)O)C(=O)O)NC(=O)[C@@H](NC(=O)[C@H](CC(=O)O)NC(=O)[C@H](CC(C)C)NC(=O)[C@](C)(Cc1ccccc1)NC(=O)[C@H](CCCCN)NC(=O)[C@H](CO)NC(=O)[C@@H](NC(=O)[C@H](CC(=O)O)NC(=O)[C@H](CO)NC(=O)[C@@H](NC(=O)[C@H](Cc1ccccc1)NC(=O)[C@@H](NC(=O)CNC(=O)[C@H](CCC(N)=O)NC(=O)C(C)(C)NC(=O)[C@@H](N)Cc1c[nH]cn1)[C@@H](C)O)[C@@H](C)O)C(C)C)[C@@H](C)O)C(=O)N[C@@H](C)C(=O)N[C@@H](Cc1c[nH]c2ccccc12)C(=O)N[C@@H](CC(C)C)C(=O)N[C@@H](CC(C)C)C(=O)N[C@@H](CCC(=O)O)C(=O)NC(C)(C)C(=O)NCC(=O)O [Peptide 199] (H-H[Aib]QGTFTSDVSK[αMeF]LDTK([AEEA-AEEA-γGlu-C18 diacid])RARDFIAWLLE[Aib]G-OH)
0.0977 | 0.0227 | 8.5 |  |  |  | CC(C)C[C@H](NC(=O)[C@H](Cc1c[nH]c2ccccc12)NC(=O)[C@H](C)NC(=O)[C@@H](NC(=O)[C@H](Cc1ccccc1)NC(=O)[C@H](CC(=O)O)NC(=O)[C@H](CCCNC(=N)N)NC(=O)[C@H](C)NC(=O)[C@H](CCCNC(=N)N)NC(=O)[C@H](CCCCNC(=O)COCCOCCNC(=O)COCCOCCNC(=O)CC[C@H](NC(=O)CCCCCCCCCCCCCCCCC(=O)O)C(=O)O)NC(=O)[C@@H](NC(=O)[C@H](CC(=O)O)NC(=O)[C@H](CC(C)C)NC(=O)[C@](C)(Cc1ccccc1)NC(=O)[C@H](CCCCN)NC(=O)[C@H](CO)NC(=O)[C@@H](NC(=O)[C@H](CC(=O)O)NC(=O)[C@H](CO)NC(=O)[C@@H](NC(=O)[C@H](Cc1ccccc1)NC(=O)[C@@H](NC(=O)CNC(=O)[C@H](CCC(N)=O)NC(=O)C(C)(C)NC(=O)[C@@H](N)Cc1c[nH]cn1)[C@@H](C)O)[C@@H](C)O)C(C)C)[C@@H](C)O)C(C)C)C(=O)N[C@@H](CC(C)C)C(=O)N[C@@H](CCC(=O)O)C(=O)NC(C)(C)C(=O)NCC(=O)O [Peptide 200] (H-H[Aib]QGTFTSDVSK[αMeF]LDTK([AEEA-AEEA-γGlu-C18 diacid])RARDFVAWLLE[Aib]G-OH)
